How the values were obtained:
IL-1β mRNA = assay: Thalamus mRNA levels by qPCR after contusion SCI; type: in vivo, mouse
Description: (§1) FIGS. 2A-D show plots of mRNA levels of Cx43 (2A), NLRP3 (2B), ASC (2C), and caspase-1 (2D) in the hippocampus of sham mice and those having contusion spinal cord injury (SCI) with and without boldine treatment. mRNA levels in the hippocampus were determined by qPCR at 13 dpi using tissues from mice that underwent laminectomy (Sham) or moderate (50 kdyne) contusion SCI. ((*p<0.05 by one-way ANOVA, N=3 per group).
(§2) FIGS. 3A-B are plots showing that boldine normalizes spinal cord injury (SCI)-induced elevation of IL-1B mRNA levels in the thalamus. mRNA levels were determined as described with reference to FIG. 2. (A) IL-1β; (B) CCL2. (*p<0.05 by ANOVA, N=3).
(§3) In rats, a spinal cord injury (SCI) can result in cognitive deficits that are associated with activation in brain regions linked to pain processing and cognition of microglia and astrocytes as well as associated with upregulation of a gene involved in inflammation (Wu et al. 2013; Wu et al. 2014). Such changes may drive central pain in neuropathic pain syndromes. To determine whether boldine mitigates such changes, mRNA expression of Cx43 and genes involved in inflammasome assembly and activity were determined in mouse brains. While SCI increased caspase-1 in the hippocampus. […] These studies indicate that boldine can reduce neuropathic pain following spinal cord injury (SCI) associated with reductions in brain and spinal cord of expression of pro-inflammatory cytokines and chemokines linked to pathological pain.

CCL2 mRNA = assay: Thalamus mRNA levels by qPCR after contusion SCI; type: in vivo, mouse; settings: compared to vehicle-treated animals after contusion SCI; FIG. 3 (thalamus); N=3
Description: as §1, §2, §3

[1] = tested on: neurite outgrowth marker GAP-43; assay: Immunofluorescence staining of injured spinal cords; type: in vivo, mouse; settings: injured spinal cord transverse sections, SCI mice at 14-dpi, vs vehicle
Description: Immunofluorescence staining was performed on injured spinal cords of vehicle and boldine treated SCI mice at 14-dpi. 30-micron transverse sections were used to evaluate differences in the labeling of the neurite outgrowth marker GAP-43.

Ccl3 = assay: Chemokine gene expression in spinal cord tissue of SCI mice; type: in vivo, mouse; settings: C57B6 SCI animals at 14-dpi, vs vehicle; N=3, ANOVA p=0.085
Description: (§4) Additional studies were performed using tissues harvested from the mice for which behavioral testing data showing effects of boldine on Basso Mouse Scale and ladder rung walk test were collected. RNA-seq analysis was performed on spinal cord segments from SCI mice at 14-dpi treated with boldine or vehicle starting at 4-dpi (N=3 for each). Differentially expressed genes (DEGs) were clustered by their gene ontology (GO) and enrichment of GO terms was tested using a Fisher's exact test (GeneSCF v1.1-p2). Enriched DEGs were involved in pathways related to neutrophil activation and aggregation, inflammatory responses and astrocyte development.
(§5) Genes from a list of the top DEGs from the RNA-seq analysis were considered and tested for differences in gene expression of pro-inflammatory chemokines Ccl2 and Ccl3 between vehicle and boldine treated spinal cord tissues from C57B6 SCI animals at 14-dpi. Laminectomy-only (Sham) animals as were used as controls.

Ccl2 = assay: as above; type: in vivo, mouse; settings: C57B6 SCI animals at 14-dpi, vs vehicle; N=3, ANOVA p=0.091
Description: as §4, §5

caspase-1 mRNA = assay: Hippocampus mRNA levels by qPCR after contusion SCI; type: in vivo, mouse; settings: contusion SCI mice, 13 dpi, N=3
Description: as §1, §3

[2] = tested on: C57BL6 mice, moderate contusion spinal cord injury (SCI) at T9-T10; assay: Ladder rung walk test (LRWT) after moderate contusion SCI; type: in vivo, mouse; settings: oral, twice daily starting at 4-dpi; at 13-dpi; vehicle-treated SCI mice 83%; N=5
Description: (§6) FIGS. 1A-C show the effects of boldine on locomotor functional recovery of C57BL6 mice after moderate spinal cord injury (SCI) at the interspace between thoracic vertebrae T9 and T10.
(§7) Function was determined by behavioral testing using both the Basso Mouse Scale (BMS) score (FIG. 1A) and the ladder rung walk test (LRWT) (FIG. 1B). While sham mice had normal BMS scores a few days after laminectomy, the BMS scores for contusion-SCI mice were much lower. […] (N=5; ANOVA *p<0.05 and **p<0.005 respectively).

[3] = tested on: C57BL6 mice, moderate contusion spinal cord injury (SCI) at T9-T10; assay: Basso Mouse Scale (BMS) open-field locomotor function after moderate contusion SCI; type: in vivo; settings: oral, twice daily starting at 4-dpi; at 13 dpi; vs vehicle-treated SCI mice; N=5
Description: as §6, §7

[4] = tested on: CCL2 mRNA in LPS astrocytes; assay: mRNA expression after LPS-induced inflammatory response in astrocytic primary cell cultures; type: cell-based; settings: compared to vehicle-treated LPS astrocytes
Description: To model effects of boldine on release of chemokines and other mediators, changes in mRNA expression after lipopolysaccharide (LPS)-induced inflammatory responses were analyzed using astrocytic primary cell cultures.

COc1cc2c(cc1O)CC1c3c(cc(O)c(OC)c3-2)CCN1C (racemic) [boldine]
reduction of mRNA levels of IL-10 (IL-1β mRNA; compared to vehicle-treated animals after contusion SCI, FIG. 3 (thalamus), N=3): 65.5% | SCI-induced elevation of IL-1B mRNA levels in the thalamus (IL-1β mRNA; contusion SCI mice, qPCR, N=3 (FIG. 3 legend)): normalizes | reduction of mRNA levels of CCL2 (CCL2 mRNA): 47.2% | GAP43 immunofluorescence [1]: dramatically increased | Ccl3 gene expression in spinal cord tissue (Ccl3): apparent decrease which did not reach our threshold for significance | Ccl2 gene expression in spinal cord tissue (Ccl2): apparent decrease which did not reach our threshold for significance | SCI-induced increase of caspase-1 mRNA in the hippocampus (caspase-1 mRNA): appeared to be corrected | LRWT incorrect steps [2]: 13% | BMS scores [3]: significantly increased | reduction of mRNA levels of CCL2 [4]: 38%
